Structures can show the parent of a compound that is named as a salt.
What was measured:
[1] = Clinical trial of oral and intravenous-then-oral delafloxacin regimens: adverse event reporting, incidence of diarrhea; assay type: in vivo, human; conditions: for Abdominal Pain, subjects reporting, number (%) / Diarrhea, subjects reporting, number (%) / Gastrointestinal disorders, subjects reporting, number (%) / Nausea, subjects reporting, number (%): n = 20, safety population; for Percentage of subjects who reported diarrhea: oral capsules
[2] = Phase 1 single-dose crossover study: treatment-emergent adverse events; assay type: in vivo, human
Experimental: The pharmacokinetics and relative bioavailabilities of a 300 mg delafloxacin intravenous dosage form according to Example 1 and a 450 mg dose of oral delafloxacin according to Example 4 were measured in a Phase 1, single-dose, open-label, randomized, 2-period, 2-sequence crossover study. 56 healthy subjects received a single 450-mg dose of oral delafloxacin and a single 300-mg delafloxacin IV infusion in 1 of 2 treatment sequences. Plasma samples were analyzed for delafloxacin concentrations with a validated LC-MS/MS method. Pharmacokinetic parameters were calculated using noncompartmental methods.
16 treatment-emergent AEs (TEAE) were reported, the most frequent of which were headache (5.4%), followed by diarrhea (3.6%). 2 TEAEs were considered moderate in severity, but the remainders were considered mild, and none led to study discontinuation.

[3] = Regimen C: 300 mg IV then 400 mg oral capsules
[4] = Regimens A/B: 400-mg oral capsules (4 × 100-mg)
[5] = 56 healthy subjects, single 450-mg oral dose and single 300-mg IV infusion

Compound | Abdominal Pain, subjects reporting, number (%) [1, 3] | Diarrhea, subjects reporting, number (%) [1, 3] | Gastrointestinal disorders, subjects reporting, number (%) [1, 3] | Nausea, subjects reporting, number (%) [1, 3] | Abdominal Pain, subjects reporting, number (%) [1, 4] | Diarrhea, subjects reporting, number (%) [1, 4] | Gastrointestinal disorders, subjects reporting, number (%) [1, 4] | Nausea, subjects reporting, number (%) [1, 4] | Side effects reported ([1]; group with intravenous administration followed by oral treatment) | Tolerability ([1]; intravenous formulation (300 mg, 3 days) followed by oral formulation (400 mg BID, 4 days)) | Side effects as compared to all-oral formulations ([1]; intravenous formulation followed by oral formulation) | Percentage of subjects who reported diarrhea [1] | Diarrhea TEAE frequency [2, 5] | Headache TEAE frequency [2, 5] | Number of treatment-emergent AEs (TEAE) reported [2, 5] | TEAEs that led to study discontinuation ([2]; in vivo) | Number of TEAEs considered moderate in severity ([2]; remainders considered mild)
CNC[C@H](O)[C@@H](O)[C@H](O)[C@H](O)CO.Nc1nc(-n2cc(C(=O)O)c(=O)c3cc(F)c(N4CC(O)C4)c(Cl)c32)c(F)cc1F [Meglumine Salt, D-glucitol, 1-deoxy-1-(methylamino)-, 1-(6-amino-3,5-difluoro-2-pyridinyl)-8-chloro-6-fluoro-1,4-dihydro-7-(3-hydroxy-1-azetidinyl)-4-oxo-3-quinolinecarboxylate] | 0 | 0 | 0 | 0 | 0 | 3 (15.0%) | 5 (25.0%) | 0 | No side effect | well tolerated | reduced side effects | 15.0% |  |  |  |  | 
Nc1nc(-n2cc(C(=O)O)c(=O)c3cc(F)c(N4CC(O)C4)c(Cl)c32)c(F)cc1F [Potassium Salt] |  |  |  |  | 2 (10.0%) | 3 (15.0%) | 3 (15.0%) | 1 (5.0%) |  |  |  | 15.0% |  |  |  |  | 
Nc1nc(-n2cc(C(=O)O)c(=O)c3cc(F)c(N4CC(O)C4)c(Cl)c32)c(F)cc1F [delafloxacin, 1-(6-amino-3,5-difluoro-2-pyridinyl)-8-chloro-6-fluoro-1,4-dihydro-7-(3-hydroxy-1-azetidinyl)-4-oxo-3-quinolinecarboxylic acid] |  |  |  |  |  |  |  |  |  |  |  |  | 3.6% | 5.4% | 16 | none | 2

Source: patent US20170368055A1, “METHODS FOR TREATING INFECTIONS” (Melinta Therapeutics, Inc., priority 2014, published 2017)
